Experiments:
[1] = test system: E. coli cells; assay: toxicity of educt and product: growth of the production strain at different concentrations; assay type: cell-based
Description: A person skilled in the art knows how to determine the maximum rate at which the enzyme can process the substrate and thus how much substrate can be added to a given reaction continuously or in a given time interval. To understand the toxicity of educt and product the growth rate of the production strain is determined in presence of different educt and product concentration.

[2] = test system: styrene monooxygenase StyA/StyB from A. baylyi; assay: in vitro sulfoxidation of arylsulfide substrates by purified StyA (oxygenase) with excess StyB (reductase), HPLC analysis; assay type: biochemical, Acinetobacter baylyi sp. ADP1; details: for ee %: enantiomeric excess of sulfoxide formed, abs. configuration S; for yield %): enzymatic conversion to sulfoxide, 2 mM substrate (1 mM in case of clouding), purified StyA with excess StyB
Description: In order to do so, the StyA unit from Acinetobacter sp. ADP1 was cloned into a pET-vector inducible with IPTG and expressed in E. coli BL21 pLysS grown in LB medium (10 g/l tryptone, 5 g/l yeast extract, 10 g/l or 20 g/l NaCl, 100 μg/ml ampicillin, 50 μg/ml Chloramphenicol). For the expression a 5 ml overnight culture was used as inoculum for a fermenter with […] or a flask with 500 ml medium. The cells were cultured at 37° C. until the culture reached an optical density of 0.6 which was the threshold for induction of recombinant gene expression using IPTG (0.1 mM). The culture was performed for another 18 h at 20° C. […] The cells were harvested and the cellular walls were disrupted using a French press. […] The target protein was purified for the subsequent characterization.
The StyB unit from Acinetobacter baylyi sp. ADP1 was expressed in a similar fashion.
In order to test the activity the StyB unit (reductase) was employed in excess to supply the StyA unit (oxygenase) with sufficient reduced FAD. Therefore, NADH was produced by a format-dehydrogenase from format and NAD in the respective enzymatic reaction.
The enzyme conversion rate was probed every minute for 15 min for the kinetic analysis. If possible, i.e. soluble, 2 mM substrate were employed. In case of clouding 1 mM substrate was employed. The substrate was dissolved in ethanol. Reactions in the probes were stopped with a 1:1 mixture of ice-cold methanol and acetonitrile and afterwards analyzed using HPLC.
The educt and the product were analyzed on an Agilent 1100 HPLC device.

[3] = resting cell activity of whole-cell biocatalyst (E. coli JM101 pStyAB_ADP1_lac); assay type: cell-based; details: E. coli JM101, M9 minimal medium, 4.8 h after induction with 1 mM IPTG
Description: In detail, the styrene monooxygenase subunits StyA and StyB were expressed in E. coli JM101 cultivated in M9 minimal medium from the pStyAB_ADP1_lac vector. To find the maximum specific activity samples were taken after previously defined time points after addition of the inducer (1 mM IPTG). Cells were retrieved from the actively growing culture and used for the determination of the resting cell activity. As shown in FIG. 3 the specific activity increased steadily from the time point of induction and reached a maximum of 450±30 U/gcdw 4.8 h after induction.
In detail, the specific activity was quantified as follows: StyA and StyB were expressed in E. coli JM101 carrying the pStyAB_ADP1_lac vector. Cells were cultivated in M9 minimal medium and induced at an OD of 0.6-0.8. […]
Successful separation of the product i.e. the S-enantiomer of 2-chloro-4-(methylsulfinylmethyl)pyridine was achieved on a Dionex UltiMate 3000 HPLC system (Thermo Scientific) equipped with a non-polar HPLC column with C18 matrix (Accucore C18, 3×150 mm, 2.6 μm particle size, Thermo Scientific). […] The organic compounds were detected by absorption using diode array detector (DAD) at a wavelength of 210 nm. […]

Molecule	ee % [2] [%]	yield %) [2] [%]	other results
C[S@+]([O-])Cc1ccnc(Cl)c1 [2-Chloro-4-((methyl-S-sulfinyl)methyl)pyridine]			toxicity of the product compared with the substrate ([1]; E. coli cells): significantly lower
CSCc1ccnc(Cl)c1 [2-chloro-4-(methylsulfanylmethyl)pyridine]			substrate concentration that entirely inhibited the growth of the cells ([1]; E. coli cells expressing StyA and StyB): above 10 mM
CSc1ccccc1 [Ph—S—CH3, phenyl methyl sulfide]	99.3	48	
C=CSc1ccccc1 [Ph—S—CH═CH2, phenyl vinyl sulfide]	99.7	40	
CSc1ccc(Br)cc1 [p(Br)—Ph—S—CH3, 4-bromophenyl methyl sulfide]	98.1	58	
CSc1ccc(C)cc1 [p(CH3)—Ph—S—CH3, 4-methylphenyl methyl sulfide]	97.6	42	
CSc1ccc(Cl)cc1 [p(Cl)—Ph—S—CH3, 4-chlorophenyl methyl sulfide]	95.5	34	
CSc1ccc(F)cc1 [p(F)—Ph—S—CH3, 4-fluorophenyl methyl sulfide]	99.0	55	
styrene monooxygenase subunits StyA and StyB: two-component styrene monooxygenase (SEQ ID NO 5 and 6) expressed in E. coli JM101 from the pStyAB_ADP1_lac vector (protein, listed as Acinetobacter baylyi) chain 1: MRRIAIVGAGQSGLQLGLSLLDTGYDVTIVTNRTADQIRQGKVMSSQCMFHTALQTERDVGLNFWEEQCPAVEGIGFTLVSPETGKPAFSWSARLERYAQSVDQRVKMPYWIEEFERRGGKLIIQDVGIDELEQLTTEYELVLLAAGKGEVVKQFVRDDERSTFDKPQRALALTYVTGMKPMSPYSRVTFNVIPGVGEYFCFPALTVTGPCEIMVFEGIPGGPMDCWQDAKTPEQHLQMSKDILNTYLPWEAERCENIEITDAGGYLAGRFPPSVRKPILTLPSGRQVFGMADALVVNDPITGQGSNNAAKCSKIYFDAILAHDTQSFTPEWMQQTFERYWSYAEKVVAWTNSLLVPPQPQMIDVLAAASQNQAIASTIANNFDDPRNFSPWWFDAEQAQHFIESKSCQKVA chain 2: MNINTSHELGLKPIDTENPREIRNLLGQFATGVTVITTRGRDGRKIGMTANSFSSLSLDPPLILWSLSKTAPSLPDFTEAEYFAIHMLAQEHHSLSGHFARGSEDKFASIAHRECERGLPLLEDVLATLVCKNINQYEGGDHLIFIGQIEHYQQRIGEPLVFHAGKYRIAAEHPELSA			maximum specific activity [3]: 450±30 U/gcdw

— US20200370080A1, “ENANTIONSELECTIVE ENZYMATIC SULFOXIDATION OF CHIRAL ARYLSULFIDES” (Bayer Aktiengesellschaft, priority 2017, published 2020)
